Values of other authors, collected in patent publication US20100104547A1, “TOPICAL COMPOSITION FOR THE TREATMENT OF ALLERGENIC EFFECTS” (priority 2005, published 2010).

B1: papain (protein, UniProt P00784 134-345, looked up)
Papain: IPEYVDWRQKGAVTPVKNQGSCGSCWAFSAVVTIEGIIKIRTGNLNEYSEQELLDCDRRSYGCNGGYPWSALQLVAQYGIHYRNTYPYEGVQRYCRSREKGPYAAKTDGVRQVQPYNEGALLYSIANQPVSVVLEAAGKDFQLYRGGIFVGPCGNKVDHAVAAVGYGPNYILIKNSWGTGWGENGYIRIKRGTGNSYGVCGLYTSSFYPVKN
notes: proteolytic enzyme, commonly in the form of meat tenderizer

How the values were obtained:
[1] = topical application
[2] = mice, bee venom intradermal; test substance by intradermal injection or topical application

Row | Molecule | reducing the itch associated with mosquito and black fly bites [1] | inhibition of lesion development [2]
1 | pancreatin | effective | 
2 | subtilisin | effective | 
3 | B1 | effective | no marked inhibition
